29 compounds from patent publication US20240116946A1 (Gilead Sciences, Inc., priority 2022, published 2024) can be followed below.

Where two headings read alike, the source gives them in different places.

The target in experiment [1] is recombinant SARS-CoV-2 Main protease (Mpro) (Severe acute respiratory syndrome coronavirus 2 (2019-nCoV) (SARS-CoV-2), UniProt P0DTD1). As to the kind of experiment: Cov Mpro Biochemical IC50 Assay.
The test system of another experiment is SARS-CoV-2-NLuc. The experiment can be described thus: microbe, parasite or virus in culture. The class given is cell-based, SARS Coronavirus 2.
[2] abbreviates: recombinant SARS-CoV-2 Mpro 7.5 nM, fluorogenic peptide substrate 40 μM, read-out: MPro IC50.
[3] abbreviates: Severe acute respiratory syndrome coronavirus, 48 h, read-out: MPro EC50.
[4] abbreviates: recombinant SARS-CoV-2 Mpro, fluorogenic peptide substrate, read-out: MPro IC50.
The mark [5] stands for this setting: Severe acute respiratory syndrome coronavirus, 48 h; read-out: MPro EC50.

Turning to `COc1cc(-c2cc3[nH]c(=O)n(-c4cncc(C)c4Cl)c(=O)c3s2)c(Cl)cc1F` [Example 1080], the IC50 (usually the concentration needed to halve the response being measured) in experiment [1] (setting [2]) is 20.4 nM. Further, the EC50 – broadly, the concentration needed to bring the measured effect to its halfway point – in the experiment with SARS-CoV-2-NLuc (setting [3]) was determined as 36 nM.
Regarding `COc1cc(-c2cc3[nH]c(=O)n(-c4cncc5c(C#N)nn(C)c45)c(=O)c3s2)c(Cl)cc1F` [Example 977], the IC50 in experiment [1] (setting [2]) came to 21.2 nM. Moreover, the EC50 in the experiment with SARS-CoV-2-NLuc (setting [3]) turned out to be 101 nM.
As to `O=c1[nH]c2cc(-c3ccccc3Cl)sc2c(=O)n1-c1cnccc1C1CCOCC1` [Example 138], the IC50 in experiment [1] (setting [4]) was 16.2 nM. The half-maximal effective concentration (EC50) in the experiment on SARS-CoV-2-NLuc (setting [3]) was determined as 144 nM.
With `Cc1c(F)cncc1-n1c(=O)c2sc(-c3ccccc3Cl)cc2n(CCC#N)c1=O` [Example 1023], in experiment [1] (setting [2]), the IC50 was found to be 19.3 nM. In the experiment with SARS-CoV-2-NLuc (setting [5]), the EC50 is 59.3 nM.
In the case of `N#Cc1cc(-c2cc3[nH]c(=O)n(-c4cncc5ccccc45)c(=O)c3s2)c(Cl)cc1F` [Example 646], the 50% inhibitory concentration (IC50) in experiment [1] (setting [2]) is 1900 nM. For the same compound, in the experiment on SARS-CoV-2-NLuc (setting [3]), the EC50 came out at 11800 nM.
For `COc1cc(-c2cc3c(s2)c(=O)n(-c2cncc4cnn(C)c24)c(=O)n3CCC#N)c(C#N)cn1` [Example 776], the concentration for half-maximal inhibition (IC50) in experiment [1] (setting [2]) turned out to be 233 nM. For the same compound, the half-maximal effective concentration (EC50) in the experiment with SARS-CoV-2-NLuc (setting [3]) was 578 nM.
For `Cc1cc(C#N)c(-c2cc3c(s2)c(=O)n(-c2cncc4cnn(C)c24)c(=O)n3CCC#N)cc1F` [Example 786], in that order: 27.9 nM and 165 nM.
`Cc1c(C2CCOCC2)cncc1-n1c(=O)[nH]c2cc(-c3ccccc3Cl)sc2c1=O` [Example 119, 6-(2-chlorophenyl)-3-(4-methyl-5-(tetrahydro-2H-pyran-4-yl)pyridin-3-yl)thieno[3,2-d]pyrimidine-2,4(1H,3H)-dione]: the concentration for half-maximal inhibition (IC50) in experiment [1] (setting [4]) turned out to be 386 nM. The concentration giving a half-maximal response (EC50) in the experiment with SARS-CoV-2-NLuc (setting [3]) is 2760 nM.
As to `COc1cc(-c2cc3c(s2)c(=O)n(-c2cncc4ccccc24)c(=O)n3[C@H]2C[C@H](C#N)C2)c(Cl)cc1F` [Example 695], the IC50 in experiment [1] (setting [2]) turned out to be 16.2 nM. The EC50 in the experiment with SARS-CoV-2-NLuc (setting [3]) was found to be 45.9 nM.
`COc1cncc(-c2cccc(Cl)c2-c2ccc3c(=O)n(-c4cncc5ccccc45)c(=O)[nH]c3c2)c1` [Example 199]: the half-maximal inhibitory concentration (IC50) in experiment [1] (setting [4]) was found to be 19.3 nM. Moreover, the EC50 in the experiment on SARS-CoV-2-NLuc (setting [3]) stood at 25.4 nM.
Consider `Cc1cncc(-n2c(=O)c3sc(-c4cc(Cl)ccc4C#N)cc3n(CCC#N)c2=O)c1` [Example 879], for which the 50% inhibitory concentration (IC50) in experiment [1] (setting [2]) is 4.33 nM. Besides, the half-maximal effective concentration (EC50) with SARS-CoV-2-NLuc (setting [5]) was found to be 20.4 nM.
For `Cc1c(Cl)cncc1-n1c(=O)c2sc(-c3cc(F)c(F)cc3Cl)cc2n(CCC#N)c1=O` [Example 847], in that order: 8.09 nM and 19.8 nM.
On to `COc1cc(-c2cc3c(s2)c(=O)n(-c2cncc4c(C)nn(C)c24)c(=O)n3CCC#N)c(Cl)cc1F` [Example 979, 3-(6-(2-chloro-4-fluoro-5-methoxyphenyl)-3-(1,3-dimethyl-1H-pyrazolo[4,3-c]pyridin-7-yl)-2,4-dioxo-3,4-dihydrothieno[3,2-d]pyrimidin-1(2H)-yl)propanenitrile], for which the IC50 in experiment [1] (setting [2]) is 3.71 nM. In the experiment on SARS-CoV-2-NLuc (setting [3]), the concentration giving a half-maximal response (EC50) came to 3.07 nM.
Take `COc1ccc(C#N)c(-c2ccc3c(=O)n(-c4cncc5ccccc45)c(=O)[nH]c3c2)c1` (single isomer, unassigned) [Example 570, 2-[3-(4-isoquinolyl)-2,4-dioxo-1H-quinazolin-7-yl]-4-methoxy-benzonitrile]: in experiment [1] (setting [2]), the concentration for half-maximal inhibition (IC50) came to 1310 nM. Besides, the concentration for a half-maximal effect (EC50) in the experiment with SARS-CoV-2-NLuc (read-out: MPro EC50) was determined as 700 nM.
Turning to `COc1ccc(Cl)c(-c2cc3[nH]c(=O)n(-c4cncc5cccc(Cl)c45)c(=O)c3s2)c1` [Example 601], the IC50 in experiment [1] (setting [2]) was < 2.54 nM. Also, in the experiment with SARS-CoV-2-NLuc (setting [3]), the EC50 amounted to 14.7 nM.
As for `COc1ccc(C#N)c(-c2ccc3c(=O)n(-c4cncc5ccccc45)c(=O)[nH]c3c2)c1` (single isomer, unassigned) [Example 569, 2-[3-(4-isoquinolyl)-2,4-dioxo-1H-quinazolin-7-yl]-4-methoxy-benzonitrile], the IC50 in experiment [1] (setting [2]) came to 8.41 nM. Further, in the experiment with SARS-CoV-2-NLuc (read-out: MPro EC50), the EC50 amounted to 20.5 nM.
`COc1ccc2cncc(-n3c(=O)[nH]c4cc(-c5ccccc5Cl)sc4c3=O)c2n1` [Example 449, 6-(2-chlorophenyl)-3-(2-methoxy-1,6-naphthyridin-8-yl)thieno[3,2-d]pyrimidine-2,4(1H,3H)-dione]: the IC50 in experiment [1] (setting [2]) worked out at 14 nM. Also, the EC50 with SARS-CoV-2-NLuc (setting [3]) came out at 29.2 nM.
With `CC(=O)NCCn1c(=O)n(-c2cncc3ccccc23)c(=O)c2sc(-c3ccccc3Cl)cc21` [Example 614], in experiment [1] (setting [2]), the IC50 was found to be 35 nM. Moreover, in the experiment with SARS-CoV-2-NLuc (read-out: MPro EC50), the half-maximal effective concentration (EC50) was found to be 64 nM.
Take `O=c1[nH]c2cc(-c3ccccc3Cl)ccc2c(=O)n1-c1cncc2ccccc12` (single isomer, unassigned) [Example 105, 7-(2-chlorophenyl)-3-(isoquinolin-4-yl)quinazoline-2,4(1H,3H)-dione]: the IC50 in experiment [1] (setting [4]) came out at 70.9 nM. Moreover, the concentration giving a half-maximal response (EC50) in the experiment with SARS-CoV-2-NLuc (read-out: MPro EC50) was 74.3 nM.
As to `COc1ccc(Cl)c(-c2cc3[nH]c(=O)n(-c4cncc5ccc(CO)cc45)c(=O)c3s2)c1` [Example 552, 6-(2-chloro-5-methoxyphenyl)-3-(6-(hydroxymethyl)isoquinolin-4-yl)thieno[3,2-d]pyrimidine-2,4(1H,3H)-dione], the IC50 in experiment [1] (setting [2]) came to 7.13 nM. Also, the concentration giving a half-maximal response (EC50) with SARS-CoV-2-NLuc (setting [3]) is 12.4 nM.
For `COc1cc(-c2cc3c(s2)c(=O)n(-c2cncc4cnn(C)c24)c(=O)n3CCO)c(Cl)cc1F` [Example 1070], in that order: 19.8 nM and 30.8 nM.
For `O=c1[nH]c2cc(-c3ccccc3Cl)sc2c(=O)n1-c1cncc2ccc(N3C[C@H]4C[C@@H]3CO4)cc12` [Example 394], in that order: 5.1 nM and 5.75 nM.
For the compound `O=c1[nH]c2cc(-c3ccccc3Cl)sc2c(=O)n1-c1cncc(C2CCC2)c1` [Example 379], the IC50 in experiment [1] (setting [4]) was determined as 436 nM. For the same compound, the EC50 with SARS-CoV-2-NLuc (setting [5]) was 186 nM.
In the case of `COc1cc(-c2cc3[nH]c(=O)n(-c4cncc5ccccc45)c(=O)c3cc2F)c(Cl)cc1F` (single isomer, unassigned) [Example 1007, 7-(2-chloro-4-fluoro-5-methoxy-phenyl)-6-fluoro-3-(4-isoquinolyl)-1H-quinazoline-2,4-dione], the concentration for half-maximal inhibition (IC50) in experiment [1] (MPro IC50, recombinant SARS-CoV-2 Mpro 7.5 nM, fluorogenic peptide substrate 40 μM) was 331 nM. Further, the EC50 in the experiment on SARS-CoV-2-NLuc (read-out: MPro EC50) is 301 nM.
Take `O=c1[nH]c2cc(-c3ccccc3Cl)sc2c(=O)n1-c1cnccc1C1CC1` [Example 130, 6-(2-chlorophenyl)-3-(4-cyclopropylpyridin-3-yl)thieno[3,2-d]pyrimidine-2,4(1H,3H)-dione]: the IC50 in experiment [1] (setting [4]) was found to be 73.1 nM. In addition, the EC50 with SARS-CoV-2-NLuc (setting [3]) worked out at 147 nM.
With `COc1cc(-c2cc3c(s2)c(=O)n(-c2cncc4ncn(C)c24)c(=O)n3CCC#N)c(Cl)cc1F` [Example 843], the half-maximal inhibitory concentration (IC50) in experiment [1] (setting [2]) is 5.43 nM. In addition, the EC50 in the experiment with SARS-CoV-2-NLuc (setting [3]) is 13.2 nM.
Consider `Cc1c(-c2cccc(Cl)c2-c2cc3[nH]c(=O)n(-c4cncc5ccccc45)c(=O)c3s2)cn2ncnc2c1C` [Example 114], for which the IC50 in experiment [1] (setting [4]) stood at 10.9 nM. In the experiment on SARS-CoV-2-NLuc (setting [3]), the EC50 was found to be 44.4 nM.
For `COc1cc(-c2cc3c(s2)c(=O)n(-c2cncc4ccccc24)c(=O)n3CCC#N)c(C#N)cc1F` [Example 1001, 2-(1-(2-cyanoethyl)-3-(isoquinolin-4-yl)-2,4-dioxo-1,2,3,4-tetrahydrothieno[3,2-d]pyrimidin-6-yl)-5-fluoro-4-methoxybenzonitrile], the IC50 in experiment [1] (setting [2]) is 5.04 nM. In addition, in the experiment on SARS-CoV-2-NLuc (setting [3]), the EC50 is 3.11 nM.
On to `COc1cc(-c2cc3[nH]c(=O)n(-c4cncc5cccnc45)c(=O)c3s2)c(Cl)cc1F` (single isomer, unassigned) [Example 1008, 6-(2-chloro-4-fluoro-5-methoxy-phenyl)-3-(1,6-naphthyridin-8-yl)-1H-thieno[3,2-d]pyrimidine-2,4-dione], for which the half-maximal inhibitory concentration (IC50) in experiment [1] (setting [2]) came to 128 nM. In addition, the EC50 with SARS-CoV-2-NLuc (read-out: MPro EC50) is 138 nM.
